Test results reported in patent publication US20090247559A1 (Exelixis, Inc., priority 2007, published 2009).

Key:
[1] = molecular target: PIM (PIM-1, PIM-2, and/or PIM-3); test: PIM-1, PIM-2 and PIM-3 inhibition, biochemical chemiluminescence assays (Kinase Glo, IC50 determination); conditions: Table 1 activity class; PIM refers to PIM-1, PIM-2, and/or PIM-3; read-out: PIM IC50 (Activity B)
Description: (§1) The IC50 evaluation of compounds against the PIM-1 oncogene was performed in a Chemiluminesence assay utilizing a Greiner 384-well white medium binding white plate format. […] Following an incubation period of 120 minutes at ambient temperature (24-27° C.), 10 μL of Kinase Glo (Promega) was added. The luminescence was measured following a Luminescence Protocol on a Victor plate reader.
as §1, with “PIM-2” for “PIM-1”, “format. […] The assay procedure involves compound dilution followed by addition of 3 nM PIM-2 to the designated well plates and subsequent pre-incubation of the compounds with the enzyme for 30 minutes at ambient temperature (24-27° C.).” for “format.”
as §1, with “PIM-3 Oncogene” for “PIM-1 oncogene”

CK2 = CK2 (Homo sapiens, UniProt P68400); test: CK2 inhibition, biochemical chemiluminescence holoenzyme assay (Kinase Glo, IC50 determination); conditions: Table 1 activity class; symbol given only if active; read-out: CK2 IC50 (Activity C)
CK2, sequence (P68400 whole entry): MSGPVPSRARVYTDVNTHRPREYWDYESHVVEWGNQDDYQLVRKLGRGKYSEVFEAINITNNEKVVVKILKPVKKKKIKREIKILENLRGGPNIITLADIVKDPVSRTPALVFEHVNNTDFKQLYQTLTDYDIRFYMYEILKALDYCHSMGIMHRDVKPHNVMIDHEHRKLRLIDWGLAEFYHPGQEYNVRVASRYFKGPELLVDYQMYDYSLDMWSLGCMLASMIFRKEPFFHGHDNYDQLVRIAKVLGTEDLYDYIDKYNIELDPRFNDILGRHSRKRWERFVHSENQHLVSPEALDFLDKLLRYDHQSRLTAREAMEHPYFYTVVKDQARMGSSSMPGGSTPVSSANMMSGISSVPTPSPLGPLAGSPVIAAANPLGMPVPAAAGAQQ
CK2, sequence (P67870 whole entry partner): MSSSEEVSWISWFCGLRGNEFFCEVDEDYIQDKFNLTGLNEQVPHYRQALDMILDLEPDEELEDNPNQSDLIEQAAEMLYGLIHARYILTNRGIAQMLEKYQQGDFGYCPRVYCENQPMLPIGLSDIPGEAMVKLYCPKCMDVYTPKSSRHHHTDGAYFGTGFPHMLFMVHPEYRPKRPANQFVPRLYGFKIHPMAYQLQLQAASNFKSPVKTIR
Description: Characterization of CK2 Inhibition in a Biochemical Chemiluminesence Assay (IC50 Determination):
The IC50 evaluation of compounds against CK2 was performed in a Chemiluminesence Holoenzyme assay utilizing a Greiner 384-well white medium binding white plate format. […] The assay procedure involves the compound dilution scheme followed by addition of 10 μL of the substrate twice, followed by 10 μL twice of the respective enzyme or buffer to the designated well plates and subsequent pre-incubation of the compounds. Following an incubation period of 150 minutes at ambient temperature (24-27° C.), 10 μL of Kinase Glo (Promega) was added. The luminescence was measured following a Luminescence Protocol on a Victor plate reader.

Row | SMILES | IC50 [1] | IC50 (CK2)
1 | O=C(c1ccc2[nH]cnc2c1)N1CCC(c2nc3c(oc4ccc(Br)cc43)c(=O)[nH]2)CC1 [Compound 208, 2-[1-(1H-benzimidazol-5-ylcarbonyl)piperidin-4-yl]-8-bromo[1]benzofuro[3,2-d]pyrimidin-4(3H)-one] | < 10 µM | < 10 µM
2 | O=C(Nc1ccc(-c2nc3c(oc4ccc(Br)cc43)c(=O)[nH]2)cc1)c1ccncc1 [Compound 360, N-[4-(8-bromo-4-oxo-3,4-dihydro[1]benzofuro[3,2-d]pyrimidin-2-yl)phenyl]pyridine-4-carboxamide] | < 10 µM | < 10 µM
3 | O=c1[nH]c(CN2CCCC(CO)C2)nc2c1oc1ccc(Br)cc12 (stereo not shown) [Compound 306, 8-bromo-2-{[3-(hydroxymethyl)piperidin-1-yl]methyl}[1]benzofuro[3,2-d]pyrimidin-4(3H)-one] | < 10 µM | < 10 µM
4 | O=C(NCc1ccncc1)C1CCN(Cc2nc3c(oc4ccc(Br)cc43)c(=O)[nH]2)C1 (stereo not shown) [Compound 325, 1-[(8-bromo-4-oxo-3,4-dihydro[1]benzofuro[3,2-d]pyrimidin-2-yl)methyl]-N-(pyridin-4-ylmethyl)pyrrolidine-3-carboxamide] | < 10 µM | < 10 µM
5 | O=c1[nH]c(CNCc2ccccn2)nc2c1oc1ccc(Br)cc12 [Compound 254, 8-bromo-2-{[(pyridin-2-ylmethyl)amino]methyl}[1]benzofuro[3,2-d]pyrimidin-4(3H)-one] | < 10 µM | < 10 µM
6 | CN(C)Cc1ccc(-c2nc3c(oc4ccc(Br)cc43)c(=O)[nH]2)cc1 [Compound 358, 8-Bromo-2-{4-[(dimethylamino)methyl]phenyl}[1]benzofuro[3,2-d]pyrimidin-4(3H)-one] | < 10 µM | < 10 µM
7 | COc1cccc(C(=O)Nc2ccc(-c3nc4c(oc5ccc(Br)cc54)c(=O)[nH]3)c(Cl)c2)c1 [Compound 281, N-[4-(8-bromo-4-oxo-3,4-dihydro[1]benzofuro[3,2-d]pyrimidin-2-yl)-3-chlorophenyl]-3-(methyloxy)benzamide] | < 10 µM | < 10 µM
8 | Cc1cc(NCC2CCNCC2)ccc1-c1nc2c(oc3ccc(Br)cc32)c(=O)[nH]1 [Compound 54, 8-bromo-2-{2-methyl-4-[(piperidin-4-ylmethyl)amino]phenyl}[1]benzofuro[3,2-d]pyrimidin-4(3H)-one] | < 10 µM | < 10 µM
9 | CN(C)CCCN1CCN(c2nc3c(oc4ccc(Br)cc43)c(=O)[nH]2)CC1 [Compound 246, 8-bromo-2-{4-[3-(dimethylamino)propyl]piperazin-1-yl}[1]benzofuro[3,2-d]pyrimidin-4(3H)-one] | < 10 µM | < 10 µM
10 | CC(C)CNC(=O)c1cccc(-c2nc3c(oc4ccc(Br)cc43)c(=O)[nH]2)c1 [Compound 101, 3-(8-bromo-4-oxo-3,4-dihydro[1]benzofuro[3,2-d]pyrimidin-2-yl)-N-(2-methylpropyl)benzamide] | < 10 µM | < 10 µM
11 | O=c1[nH]c(CN2CCC(N3CCOCC3)CC2)nc2c1oc1ccc(Br)cc12 [Compound 257, 8-bromo-2-[(4-morpholin-4-ylpiperidin-1-yl)methyl][1]benzofuro[3,2-d]pyrimidin-4(3H)-one] | < 10 µM | < 10 µM
12 | O=c1[nH]c(-c2ccccc2O)nc2c1oc1ccc(Br)cc12 [Compound 51, 8-bromo-2-(2-hydroxyphenyl)[1]benzofuro[3,2-d]pyrimidin-4(3H)-one] | < 10 µM | < 10 µM
13 | O=C(Nc1ccc(-c2nc3c(oc4ccc(Br)cc43)c(=O)[nH]2)c(Cl)c1)c1ccc(Cl)cn1 [Compound 339, N-[4-(8-bromo-4-oxo-3,4-dihydro[1]benzofuro[3,2-d]pyrimidin-2-yl)-3-chlorophenyl]-5-chloropyridine-2-carboxamide] | < 10 µM | < 10 µM
14 | CN(C)c1cccc(CNCc2nc3c(oc4ccc(Br)cc43)c(=O)[nH]2)c1 [Compound 21, 8-bromo-2-[({[3-(dimethylamino)phenyl]methyl}amino)methyl][1]benzofuro[3,2-d]pyrimidin-4(3H)-one] | < 10 µM | < 10 µM
15 | O=C(Nc1ccc(Cl)c(-c2nc3c(oc4ccc(Br)cc43)c(=O)[nH]2)c1)c1ccno1 [Compound 372, N-[3-(8-bromo-4-oxo-3,4-dihydro[1]benzofuro[3,2-d]pyrimidin-2-yl)-4-chlorophenyl]isoxazole-5-carboxamide] | < 10 µM | < 10 µM
16 | CN(C)CCCNc1nc2c(oc3ccc(Br)cc32)c(=O)[nH]1 [Compound 193, 8-bromo-2-{[3-(dimethylamino)propyl]amino}[1]benzofuro[3,2-d]pyrimidin-4(3H)-one] | < 10 µM | < 10 µM
17 | O=c1[nH]c(-c2ccc(NCc3c[nH]cn3)cc2Cl)nc2c1oc1ccc(Br)cc12 [Compound 139, 8-bromo-2-{2-chloro-4-[(1H-imidazol-4-ylmethyl)amino]phenyl}[1]benzofuro[3,2-d]pyrimidin-4(3H)-one] | < 10 µM | < 10 µM
18 | CN1CCN(c2cccc(CNCc3nc4c(oc5ccc(Br)cc54)c(=O)[nH]3)c2)CC1 [Compound 14, 8-bromo-2-[({[3-(4-methylpiperazin-1-yl)phenyl]methyl}amino)-methyl][1]benzofuro[3,2-d]pyrimidin-4(3H)-one] | < 10 µM | < 10 µM
19 | O=c1[nH]c(CN2CC[C@H](O)C2)nc2c1oc1ccc(CCCCCCO)cc12 [Compound 457, 8-(6-hydroxyhexyl)-2-{[(3S)-3-hydroxypyrrolidin-1-yl]methyl}[1]benzofuro[3,2-d]pyrimidin-4(3H)-one] | < 10 µM | < 10 µM
20 | COc1cccc2oc3c(=O)[nH]c(-c4ccc5[nH]nc(N)c5c4)nc3c12 [Compound 171, 2-(3-amino-1H-indazol-5-yl)-9-(methyloxy)[1]benzofuro[3,2-d]pyrimidin-4(3H)-one] | < 10 µM | < 10 µM
21 | O=C(Nc1ccc(-c2nc3c(oc4ccc(Br)cc43)c(=O)[nH]2)c(Cl)c1)c1ccccc1 [Compound 249, N-[4-(8-bromo-4-oxo-3,4-dihydro[1]benzofuro[3,2-d]pyrimidin-2-yl)-3-chlorophenyl]benzamide] | < 10 µM | < 10 µM
22 | COc1cccc(CNc2ccc3oc4c(=O)[nH]c(CN5CC[C@H](O)C5)nc4c3c2)c1 [Compound 467, 2-{[(3S)-3-hydroxypyrrolidin-1-yl]methyl}-8-({[3-(methyloxy)phenyl]methyl}amino)[1]benzofuro[3,2-d]pyrimidin-4(3H)-one] | < 10 µM | < 10 µM
23 | O=C(Nc1ccc(Cl)c(-c2nc3c(oc4ccc(Br)cc43)c(=O)[nH]2)c1)c1ccccc1 [Compound 371, N-[3-(8-bromo-4-oxo-3,4-dihydro[1]benzofuro[3,2-d]pyrimidin-2-yl)-4-chlorophenyl]benzamide] | < 10 µM | < 10 µM
24 | O=c1[nH]c(CN2C[C@H]3CNC[C@H]3C2)nc2c1oc1ccc(Br)cc12 [Compound 229, 8-bromo-2-[(3aR,6aS)-hexahydropyrrolo[3,4-c]pyrrol-2(1H)-ylmethyl][1]benzofuro[3,2-d]pyrimidin-4(3H)-one] | < 10 µM | < 10 µM
25 | O=C(c1ccncc1)N1CCC(c2nc3c(oc4ccc(Br)cc43)c(=O)[nH]2)CC1 [Compound 236, 8-bromo-2-[1-(pyridin-4-ylcarbonyl)piperidin-4-yl][1]benzofuro[3,2-d]pyrimidin-4(3H)-one] | < 10 µM | < 10 µM
26 | COC(=O)c1ccc(C(=O)Nc2ccc(-c3nc4c(oc5ccc(Br)cc54)c(=O)[nH]3)c(Cl)c2)nc1 [Compound 334, methyl 6-({[4-(8-bromo-4-oxo-3,4-dihydro[1]benzofuro[3,2-d]pyrimidin-2-yl)-3-chlorophenyl]amino}carbonyl)pyridine-3-carboxylate] | < 10 µM | < 10 µM
27 | COc1cccc2oc3c(=O)[nH]c(-c4ccc5[nH]nc(C)c5c4)nc3c12 [Compound 170, 2-(3-methyl-1H-indazol-5-yl)-9-(methyloxy)[1]benzofuro[3,2-d]pyrimidin-4(3H)-one] | < 10 µM | < 10 µM
28 | O=C(Nc1ccc(-c2nc3c(oc4ccc(Br)cc43)c(=O)[nH]2)c(Cl)c1)C1CCCC1 [Compound 251, N-[4-(8-bromo-4-oxo-3,4-dihydro[1]benzofuro[3,2-d]pyrimidin-2-yl)-3-chlorophenyl]cyclopentanecarboxamide] | < 10 µM | < 10 µM
29 | CN1CCN(c2ccc(COCc3nc4c(oc5ccc(Br)cc54)c(=O)[nH]3)cc2)CC1 [Compound 102, 8-bromo-2-[({[4-(4-methylpiperazin-1-yl)phenyl]methyl}oxy)methyl][1]benzofuro[3,2-d]pyrimidin-4(3H)-one] | < 10 µM | < 10 µM
